Data on 24 compounds can be found in US12187709B2 (Genentech, Inc., priority 2021, dated 2025).

As usually defined, the IC50 is the midpoint of a concentration-inhibition curve. Read a high IC50 as weaker potency in that assay.

The target of assay [1] is Cbl-b (Homo sapiens (Human), UniProt Q13191). The assay can be described thus: Cbl-b LCK Ub TR-FRET assay (Cbl-b Lck HTRF). It counts as biochemical. Particulars: for IC50: Cbl-b LCK Ub TR-FRET; for fold-selectivity (Cbl-b over C-cbl) / (fold-selectivity) Cbl-b and C-Cbl Selectivity: ratio C-cbl Lck HTRF IC50 / Cbl-b Lck HTRF IC50. The method, then:
(§1) 6 μL of detection mixture was added to all wells and briefly centrifuged before incubating for 20 min at room temperature. […] IC50 was generated using no LCK as the low control and DMSO as the high control.
(In general: Time-resolved FRET reads energy transfer from a long-lived donor to a nearby acceptor.)

The target in assay [2] is c-Cbl (Homo sapiens (Human), UniProt P22681). Briefly: C-Cbl LCK Ub TR-FRET assay (C-cbl Lck HTRF). In kind it is biochemical. The method, then: as §1
Sequence of c-Cbl (P22681 47-435): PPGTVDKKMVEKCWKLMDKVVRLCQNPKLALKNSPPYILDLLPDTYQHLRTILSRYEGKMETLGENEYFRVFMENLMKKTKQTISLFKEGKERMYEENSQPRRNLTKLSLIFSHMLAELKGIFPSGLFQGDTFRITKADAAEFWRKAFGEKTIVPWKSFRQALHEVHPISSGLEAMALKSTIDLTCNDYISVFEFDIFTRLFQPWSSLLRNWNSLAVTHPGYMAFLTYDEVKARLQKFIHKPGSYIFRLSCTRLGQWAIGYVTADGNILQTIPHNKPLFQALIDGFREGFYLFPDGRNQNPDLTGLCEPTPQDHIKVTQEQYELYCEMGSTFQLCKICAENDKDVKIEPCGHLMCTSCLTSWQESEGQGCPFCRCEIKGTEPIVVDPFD

Sequence of Cbl-b (Q13191 40-426): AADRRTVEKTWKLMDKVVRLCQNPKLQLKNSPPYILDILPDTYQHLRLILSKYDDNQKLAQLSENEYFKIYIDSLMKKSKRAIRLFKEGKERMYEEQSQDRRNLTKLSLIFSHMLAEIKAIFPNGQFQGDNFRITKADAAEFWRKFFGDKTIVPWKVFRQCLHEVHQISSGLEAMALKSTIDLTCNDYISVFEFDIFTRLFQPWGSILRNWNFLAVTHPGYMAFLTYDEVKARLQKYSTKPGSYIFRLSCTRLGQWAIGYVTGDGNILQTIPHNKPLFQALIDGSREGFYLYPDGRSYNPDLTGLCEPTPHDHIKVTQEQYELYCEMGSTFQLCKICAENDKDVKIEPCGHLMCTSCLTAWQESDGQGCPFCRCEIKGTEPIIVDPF

`COc1cc([C@H](c2nncn2C)C2COC2)cc(N2Cc3c(cc(CNC4(C)CCC4)cc3C(F)(F)F)C2=O)c1` (single isomer, unassigned) [Compound 338]: the IC50 in assay [1] was 3.8 µM; in assay [2], 6 µM. For the same compound, in assay [1], the “fold-selectivity (Cbl-b over C-cbl)” value worked out at 1.6x.

On to `Cn1cnnc1[C@@H](c1cccc(N2Cc3c(cc(CNC4(C)CCC4)cc3C(F)(F)F)C2=O)c1)n1ccnc1` (single isomer, unassigned) [Compound 344], for which the results for the IC50 in assay [1] and in assay [2] were at least 20 µM and 20 µM, respectively. In addition, the “fold-selectivity (Cbl-b over C-cbl)” value in assay [1] stood at 1x.

Regarding `Cn1nnnc1[C@H](c1cccc(N2Cc3c(cc(CNC4(C)CCC4)cc3C(F)(F)F)C2=O)c1)C1COC1` (single isomer, unassigned) [Compound 349], the IC50 is at least 20 µM in assay [1] and 20 µM in assay [2]. In assay [1], the “fold-selectivity (Cbl-b over C-cbl)” value amounted to 1x.

Regarding `Cn1ccnc1[C@H](c1cccc(N2Cc3c(cc(CNC4(C)CCC4)cc3C(F)(F)F)C2=O)c1)C1COC1` (single isomer, unassigned) [Compound 353], in assay [1], the half-inhibitory concentration (IC50) is 9.6 µM and the “fold-selectivity (Cbl-b over C-cbl)” value was found to be 2.1x. The same compound gave an IC50 in assay [2] of 20 µM.

For the compound `Cn1cnnc1C(c1cccc(N2Cc3c(cc(CNC4(C)CCC4)cc3C(F)(F)F)C2=O)c1)[C@H]1C[C@@H](Cl)C1` (single isomer, unassigned) [Compound 354], in assay [1], the IC50 was found to be 0.07 µM and the “fold-selectivity (Cbl-b over C-cbl)” value was determined as 8.3x. The same compound had an IC50 in assay [2] of 0.58 µM.

Regarding `Cn1cnnc1C(c1cccc(N2Cc3c(cc(CNC4(C)CCC4)cc3C(F)(F)F)C2=O)c1)[C@H]1C[C@H](Cl)C1` (single isomer, unassigned) [Compound 355], in assay [1], the half-maximal inhibitory concentration (IC50) came out at 0.15 µM and the “fold-selectivity (Cbl-b over C-cbl)” value is given as 13x. Also, the concentration for half-maximal inhibition (IC50) in assay [2] is 2 µM.

Consider `CC[C@H](c1cccc(N2Cc3c(Cl)cc(CNC4(C)CCC4)cc3C2=O)c1)c1nncn1C` (single isomer, unassigned) [Compound 358], for which, in assay [1], the IC50 turned out to be 0.14 µM and the “fold-selectivity (Cbl-b over C-cbl)” value was found to be 3.5x. The compound further showed an IC50 in assay [2] of 0.48 µM.

`CO[C@H]1C[C@](O)(C(c2cccc(N3Cc4c(cc(CNC5(C)CCC5)cc4C(F)(F)F)C3=O)c2)c2nncn2C)C1` (single isomer, unassigned) [Compound 367]: the results for the IC50 in assay [1] and in assay [2] were 7.1 µM and 12 µM, respectively. In addition, the “fold-selectivity (Cbl-b over C-cbl)” value in assay [1] is listed as 1.7x.

Turning to `CO[C@H]1C[C@](O)(C(c2cccc(N3Cc4c(cc(CNC5(C)CCC5)cc4C(F)(F)F)C3=O)c2)c2nncn2C)C1` (single isomer, unassigned) [Compound 368], in assay [1], the 50% inhibitory concentration (IC50) was found to be 4 µM and the “fold-selectivity (Cbl-b over C-cbl)” value came out at 1.6x. Also, in assay [2], the IC50 was 6.4 µM.

Regarding `CC[C@](O)(c1cccc(N2Cc3c(cc(CNC4(C)CCC4)cc3C(F)(F)F)C2=O)c1)c1nncn1C` (single isomer, unassigned) [Compound 391], the 50% inhibitory concentration (IC50) in assay [1] came out at 0.85 µM; in assay [2] it was 0.86 µM. Also, the “fold-selectivity (Cbl-b over C-cbl)” value in assay [1] was found to be 1.0x.

In the case of `Cn1cnnc1[C@H](c1cccc(N2Cc3c(cc(CNC4(C)CCC4)cc3C(F)(F)F)C2=O)c1)C1CC(OC(F)(F)F)C1` (single isomer, unassigned) [Compound 396], in assay [1], half-maximal inhibition (IC50) required 0.1 µM and the “fold-selectivity (Cbl-b over C-cbl)” value turned out to be 1.7x. In addition, in assay [2], the half-inhibitory concentration (IC50) was 0.17 µM.

Consider `CC(=O)N(C)[C@@H](c1cccc(N2Cc3c(cc(CNC4(C)CCC4)cc3C(F)(F)F)C2=O)c1)c1nncn1C` (single isomer, unassigned) [Compound 400], for which, in assay [1], the half-inhibitory concentration (IC50) was at least 20 µM and the “fold-selectivity (Cbl-b over C-cbl)” value is on record as 1.0x. For the same compound, the IC50 in assay [2] stood at 20 µM.

As for `CC(=O)N1CC([C@H](c2cccc(N3Cc4c(cc(CNC5(C)CCC5)cc4C(F)(F)F)C3=O)c2)c2nncn2C)C1` (single isomer, unassigned) [Compound 401], the IC50 in assay [1] was 8.5 µM; in assay [2], 13 µM. Moreover, the “fold-selectivity (Cbl-b over C-cbl)” value in assay [1] is on record as 1.6 x.

With `C[C@@H](NC1(C)CCC1)c1cc2c(c(C(F)F)c1)CN(c1cccc([C@@H](c3nncn3C)C3COC3)c1)C2=O` (single isomer, unassigned) [Compound 406], the IC50 in assay [1] (Example 121) stood at 9.9 µM; in assay [2], 20 µM. Besides, the “(fold-selectivity) Cbl-b and C-Cbl Selectivity” value in assay [1] is on record as 2.0x.

Turning to `Cn1cnnc1[C@@](O)(c1ccccc1)c1cccc(N2Cc3c(Cl)cc(CNC4(C)CCC4)cc3C2=O)c1` (single isomer, unassigned) [Compound 410], the IC50 in assay [1] (Example 121) came out at 4.5 µM; in assay [2] it was 15 µM. In assay [1], the “(fold-selectivity) Cbl-b and C-Cbl Selectivity” value came to 3.4x.

Consider `Cn1cnnc1[C@](O)(c1ccccc1)c1cccc(N2Cc3c(Cl)cc(CNC4(C)CCC4)cc3C2=O)c1` (single isomer, unassigned) [Compound 411], for which the 50% inhibitory concentration (IC50) is at least 20 µM in assay [1] (Example 121) and 20 µM in assay [2]. Moreover, in assay [1], the “(fold-selectivity) Cbl-b and C-Cbl Selectivity” value amounted to 1.0x.

`Cn1cnnc1[C@H](c1cccc(N2Cc3c(cc(CNC4(C)CCC4)cc3C(F)(F)F)C2=O)c1)C1(O)CCC1` (single isomer, unassigned) [Compound 428]: the IC50 in assay [1] (Example 121) is 5.3 µM; in assay [2], 20 µM. Besides, the “(fold-selectivity) Cbl-b and C-Cbl Selectivity” value in assay [1] stood at 3.8x.

For the compound `Cn1cnnc1[C@H](c1cccc(N2Cc3c(cc([C@@H](NC4(C)CCC4)C4CCC4)cc3C(F)(F)F)C2=O)c1)C1COC1` (single isomer, unassigned) [Compound 435], the results for the half-inhibitory concentration (IC50) in assay [1] (Example 121) and in assay [2] were 8.5 µM and 20 µM, respectively. Further, the “(fold-selectivity) Cbl-b and C-Cbl Selectivity” value in assay [1] was 2.4x.

For `CC1(NCc2cc3c(c(C(F)(F)F)c2)CN(c2cccc([C@H](C4COC4)n4ccnn4)c2)C3=O)CCC1` (single isomer, unassigned) [Compound 437], the half-maximal inhibitory concentration (IC50) is at least 20 µM in assay [1] (Example 121) and 20 µM in assay [2]. The “(fold-selectivity) Cbl-b and C-Cbl Selectivity” value in assay [1] is listed as 1.0x.

For the compound `Cn1cnnc1[C@@H](c1cccc(N2Cc3c(cc(CNC4(C)CCC4)cc3C(F)(F)F)C2=O)c1)[C@@H]1CCS(=O)(=O)C1` (single isomer, unassigned) [Compound 438], the IC50 in assay [1] (Example 121) came out at 3 µM; in assay [2], 20 µM. Moreover, the “(fold-selectivity) Cbl-b and C-Cbl Selectivity” value in assay [1] is recorded as 6.8x.

Turning to `Cn1cnnc1[C@H](c1cccc(N2Cc3c(cc(CNC4(C)CCC4)cc3C(F)(F)F)C2=O)c1)[C@@H]1CCS(=O)(=O)C1` (single isomer, unassigned) [Compound 439], the half-maximal inhibitory concentration (IC50) in assay [1] (Example 121) stood at 14 µM; in assay [2] it was 20 µM. In addition, in assay [1], the “(fold-selectivity) Cbl-b and C-Cbl Selectivity” value is recorded as 1.4 x.

For the compound `CC1(NCc2cc3c(c(C(F)(F)F)c2)CN(c2cccc([C@H](c4nnc[nH]4)C4COC4)c2)C3=O)CCC1` (single isomer, unassigned) [Compound 440], the IC50 in assay [1] (Example 121) is 0.066 µM; in assay [2] it was 0.4 µM. For the same compound, the “(fold-selectivity) Cbl-b and C-Cbl Selectivity” value in assay [1] came out at 6.0x.

As to `CC1(NCc2cc3c(c(C(F)(F)F)c2)CN(c2cccc([C@@H](c4nnc[nH]4)C4COC4)c2)C3=O)CCC1` (single isomer, unassigned) [Compound 441], the IC50 in assay [1] (Example 121) turned out to be 6.3 µM; in assay [2], 20 µM. Moreover, in assay [1], the “(fold-selectivity) Cbl-b and C-Cbl Selectivity” value was determined as 3.2x.

For `Cn1cnnc1[C@H](c1cccc(N2Cc3c(cc([C@@H](NC4(C)CCC4)C4CC4)cc3C(F)(F)F)C2=O)c1)C1COC1` (single isomer, unassigned) [Compound 457], the 50% inhibitory concentration (IC50) in assay [1] (Example 121) was found to be 7.1 µM; in assay [2], 11 µM. Moreover, the “(fold-selectivity) Cbl-b and C-Cbl Selectivity” value in assay [1] was 1.6x.
